For this test, the target named is T1, Recombinant full length human OGA enzyme (Homo sapiens, UniProt O60502).
T1 construct: Recombinant full length human OGA enzyme; purchased Origene
T1 sequence (O60502 1-916): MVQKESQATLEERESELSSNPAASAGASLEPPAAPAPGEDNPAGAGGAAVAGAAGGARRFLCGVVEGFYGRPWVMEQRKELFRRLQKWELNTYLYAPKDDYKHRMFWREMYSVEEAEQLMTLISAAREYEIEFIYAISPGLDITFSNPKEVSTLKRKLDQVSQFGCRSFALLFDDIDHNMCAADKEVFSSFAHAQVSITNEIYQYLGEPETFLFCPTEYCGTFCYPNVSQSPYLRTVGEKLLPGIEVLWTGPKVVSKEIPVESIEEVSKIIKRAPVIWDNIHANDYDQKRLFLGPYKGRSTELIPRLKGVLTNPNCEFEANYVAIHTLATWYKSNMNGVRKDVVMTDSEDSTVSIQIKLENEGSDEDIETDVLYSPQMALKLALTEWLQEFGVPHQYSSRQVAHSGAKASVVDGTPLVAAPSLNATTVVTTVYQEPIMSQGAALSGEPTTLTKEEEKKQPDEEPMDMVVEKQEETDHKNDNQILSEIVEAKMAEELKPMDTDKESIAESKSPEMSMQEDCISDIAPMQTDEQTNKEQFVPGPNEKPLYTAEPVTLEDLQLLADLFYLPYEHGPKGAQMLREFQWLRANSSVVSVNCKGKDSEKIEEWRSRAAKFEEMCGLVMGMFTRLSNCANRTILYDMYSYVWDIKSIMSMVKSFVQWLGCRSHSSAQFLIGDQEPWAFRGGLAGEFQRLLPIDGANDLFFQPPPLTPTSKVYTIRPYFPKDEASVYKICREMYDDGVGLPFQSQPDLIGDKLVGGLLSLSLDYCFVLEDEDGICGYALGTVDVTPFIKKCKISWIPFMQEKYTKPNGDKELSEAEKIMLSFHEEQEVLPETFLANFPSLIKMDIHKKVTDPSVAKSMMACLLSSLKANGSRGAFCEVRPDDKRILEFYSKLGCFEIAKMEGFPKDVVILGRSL
The test can be described thus: OGA Enzyme Inhibition Biochemical Assay. The following applies: 1 nM OGA, 100 μM 4-MUGlcNAc (Km), pH 6.4, 90 minutes at room temperature, 10-point dose-response starting from 20 μM. On the procedure:
OGA Enzyme Inhibition Biochemical Assay
Recombinant full length human OGA enzyme was purchased from Origene. 4-MUGlCNAc substrate was purchased from Sigma. All other reagents were purchased from Sigma or Fisher. Assay buffer consists of the Mcllvaine buffer system, pH 6.4 (0.2M Na2HPO4 mixed with 0.1M citric acid) and 0.01% BSA. Reactions consist of 1 nM OGA, 100 μM 4-MUGlcNAc (Km), and compound in a final volume of 10 μl. Reactions were incubated for 90 minutes at room temperature and quenched with […] of 3M glycine, pH 10 and read on a Perkin Elmer Envision plate reader (Ex: 355 nm/Em: 460 nm). Compounds were tested with a 10-point dose-response starting from 20 μM with a 4-fold dilution. Data was fit using GraphPad Prism using a 4-parameter fit with variable slope.
In the case of `CC(=O)Nc1ncc(CN2CC(COc3ccc(F)cn3)C2)s1` [Example 2-22, N-(5-((3-(((5-fluoropyridin-2-yl)oxy)methyl)azetidin-1-yl)methyl)thiazol-2-yl)acetamide], the IC50 was found to be 1500 nM.

For the compound `CC(=O)Nc1ncc(CN2CC(Nc3ccc(C#N)cn3)C2)s1` [Example 2-13, N-(5-((3-((5-cyanopyridin-2-yl)amino)azetidin-1-yl)methyl)thiazol-2-yl)acetamide], the IC50 amounted to 59 nM.

Consider `CC(=O)Nc1ncc(CN2C[C@H](Nc3ccc(C#N)cn3)[C@H]2C)s1` [Example 2-19, N-(5-(((2R,3S)-3-((5-cyanopyridin-2-yl)amino)-2-methylazetidin-1-yl)methyl)thiazol-2-yl)acetamide], for which the IC50 worked out at 25 nM.

Consider `CC(=O)Nc1ncc(CN2CC(Cc3ccccc3)C2)s1` [Example 4-2, N-(5-((3-benzylazetidin-1-yl)methyl)thiazol-2-yl)acetamide], for which the IC50 was 580 nM.

On to `COc1cc(CNC2CN(Cc3cnc(NC(C)=O)s3)C2)ccn1` [Example 3-2, N-(5-((3-(((2-methoxypyridin-4-yl)methyl)amino)azetidin-1-yl)methyl)thiazol-2-yl)acetamide], for which the IC50 worked out at 210 nM.

`COc1cc(O[C@H]2CN(Cc3cnc(NC(C)=O)s3)[C@@H]2C)ccn1` [Example 2-7, N-(5-(((2R,3S)-3-((2-methoxypyridin-4-yl)oxy)-2-methylazetidin-1-yl)methyl)thiazol-2-yl)acetamide]: the IC50 was determined as 210 nM.

For `CC(=O)Nc1ncc(CN2C[C@H](Oc3ncc(F)cn3)[C@H]2C)s1` [Example 2-30, N-(5-(((2R,3S)-3-((5-fluoropyrimidin-2-yl)oxy)-2-methylazetidin-1-yl)methyl)thiazol-2-yl)acetamide], the IC50 came out at 170 nM.

For the compound `COc1cc(O[C@@H]2CN(Cc3cnc(NC(C)=O)s3)[C@@H]2C)ncn1` [Example 2-28, N-(5-(((2R,3R)-3-((6-methoxypyrimidin-4-yl)oxy)-2-methylazetidin-1-yl)methyl)thiazol-2-yl)acetamide], the IC50 was determined as 110 nM.

Consider `CC(=O)Nc1ncc(CN2CC(CNc3cc(C)nc(C)c3)C2)s1` [Example 2-24, N-(5-((3-(((2,6-dimethylpyridin-4-yl)amino)methyl)azetidin-1-yl)methyl)thiazol-2-yl)acetamide], for which the IC50 is 1400 nM.

On to `COc1cc(N[C@H]2CN(Cc3cnc(NC(C)=O)s3)[C@@H]2C)ccn1` [Example 2-17, N-(5-(((2R,3S)-3-((2-methoxypyridin-4-yl)amino)-2-methylazetidin-1-yl)methyl)thiazol-2-yl)acetamide], for which the IC50 was 11 nM.

For the compound `COc1cc(O[C@H]2CN(Cc3cnc(NC(C)=O)s3)[C@@H]2C)ncn1` [Example 2-27, N-(5-(((2R,3S)-3-((6-methoxypyrimidin-4-yl)oxy)-2-methylazetidin-1-yl)methyl)thiazol-2-yl)acetamide], the IC50 is 600 nM.

Take `COc1cc(NCC2CN(Cc3cnc(NC(C)=O)s3)C2)ccn1` [Example 2-25, N-(5-((3-(((2-methoxypyridin-4-yl)amino)methyl)azetidin-1-yl)methyl)thiazol-2-yl)acetamide]: the IC50 was found to be 610 nM.

With `CC(=O)Nc1ncc(CN2C[C@H](Oc3ncc(F)cn3)[C@H]2C)s1` [Example 2-33, N-(5-(((2R,3S)-3-((5-fluoropyrimidin-2-yl)oxy)-2-methylazetidin-1-yl)methyl)thiazol-2-yl)acetamide], the concentration for half-maximal inhibition (IC50) is 390 nM.

As to `CC(=O)Nc1ncc(CN2CC(CNc3cc(C)nc(C)n3)C2)s1` [Example 2-26, N-(5-((3-(((2,6-dimethylpyrimidin-4-yl)amino)methyl)azetidin-1-yl)methyl)thiazol-2-yl)acetamide], the IC50 was 1300 nM.

With `COc1cc(O[C@@H]2CN(Cc3cnc(NC(C)=O)s3)[C@@H]2C)ccn1` [Example 2-6, N-(5-(((2R,3R)-3-((2-methoxypyridin-4-yl)oxy)-2-methylazetidin-1-yl)methyl)thiazol-2-yl)acetamide], the half-maximal inhibitory concentration (IC50) worked out at 170 nM.

On to `CC(=O)Nc1ncc(CN2CC(Nc3ccc(F)cn3)C2)s1` [Example 2-14, N-(5-((3-((5-fluoropyridin-2-yl)amino)azetidin-1-yl)methyl)thiazol-2-yl)acetamide], for which the half-maximal inhibitory concentration (IC50) stood at 130 nM.

Take `CCOc1cc(CC2CN(Cc3cnc(NC(C)=O)s3)C2)ccn1` [Example 4-1, N-(5-((3-((2-ethoxypyridin-4-yl)methyl)azetidin-1-yl)methyl)thiazol-2-yl)acetamide]: the IC50 is 47 nM.

In the case of `CC(=O)Nc1ncc(CN2C[C@@H](Oc3ccc(F)cn3)[C@H]2C)s1` [Example 2-8, N-(5-(((2R,3R)-3-((5-fluoropyridin-2-yl)oxy)-2-methylazetidin-1-yl)methyl)thiazol-2-yl)acetamide], the IC50 worked out at 450 nM.

For `COc1cc(N[C@@H]2CN(Cc3cnc(NC(C)=O)s3)[C@@H]2C)ccn1` [Example 2-16, N-(5-(((2R,3R)-3-((2-methoxypyridin-4-yl)amino)-2-methylazetidin-1-yl)methyl)thiazol-2-yl)acetamide], the IC50 amounted to 570 nM.

In the case of `CC(=O)Nc1ncc(CN2C[C@@H](Nc3ccc(F)cn3)[C@H]2C)s1` [Example 2-15, N-(5-(((2R,3R)-3-((5-fluoropyridin-2-yl)amino)-2-methylazetidin-1-yl)methyl)thiazol-2-yl)acetamide], the IC50 worked out at 800 nM.

Turning to `CC(=O)Nc1ncc(CN2C[C@@H](Oc3ncc(F)cn3)[C@H]2C)s1` [Example 2-29, N-(5-(((2R,3R)-3-((5-fluoropyrimidin-2-yl)oxy)-2-methylazetidin-1-yl)methyl)thiazol-2-yl)acetamide], the IC50 worked out at 570 nM.

For the compound `COc1cc(COC2CN(Cc3cnc(NC(C)=O)s3)C2)ccn1` [Example 1-1, N-(5-((3-((2-methoxypyridin-4-yl)methoxy)azetidin-1-yl)methyl)thiazol-2-yl)acetamide], the IC50 is 91 nM.

Regarding `COc1cc(NC2CN(Cc3cnc(NC(C)=O)s3)C2)ccn1` [Example 2-12, N-(5-((3-((2-methoxypyridin-4-yl)amino)azetidin-1-yl)methyl)thiazol-2-yl)acetamide], the IC50 was 33 nM.

For the compound `CC(=O)Nc1ncc(CN2C[C@@H](Nc3ccc(C#N)cn3)[C@H]2C)s1` [Example 2-18, N-(5-(((2R,3R)-3-((5-cyanopyridin-2-yl)amino)-2-methylazetidin-1-yl)methyl)thiazol-2-yl)acetamide], the IC50 was determined as 570 nM.

`COc1cc(NC2CN(Cc3cnc(NC(C)=O)s3)C2)ncn1` [Example 2-11]: the IC50 was 407 nM.

As to “N-(5-43-(((5-methyl-1,2,4-oxadiazol-3-yl)methyl)amino)azetidin-1-yl)methyl)thiazol-2-yl)acetamide [Example 3-3]”, the IC50 came to 900 nM.

For `CC(=O)Nc1ncc(CN2CC(COc3cc(C)nc(C)c3)C2)s1` [Example 2-20, N-(5-((3-(((2,6-dimethylpyridin-4-yl)oxy)methyl)azetidin-1-yl)methyl)thiazol-2-yl)acetamide], the IC50 was determined as 480 nM.

As to `CC(=O)Nc1ncc(CN2CC(OCc3cc(C)nc(C)c3)C2)s1` [Example 1-2, N-(5-((3-((2,6-dimethylpyridin-4-yl)methoxy)azetidin-1-yl)methyl)thiazol-2-yl)acetamide], the IC50 was 480 nM.

Take `CC(=O)Nc1ncc(CN2CC(Oc3ncccc3C)C2)s1` [Example 2-4, N-(5-((3-((3-methylpyridin-2-yl)oxy)azetidin-1-yl)methyl)thiazol-2-yl)acetamide]: the IC50 is > 20 nM.

As to `CC(=O)Nc1ncc(CN2C[C@H](Oc3ccc(C#N)cn3)[C@H]2C)s1` [Example 2-32, N-(5-(((2R,3S)-3-((5-cyanopyridin-2-yl)oxy)-2-methylazetidin-1-yl)methyl)thiazol-2-yl)acetamide], the IC50 came to 980 nM.

Turning to `CC(=O)Nc1ncc(CN2C[C@@H](Oc3ccc(C#N)cn3)[C@H]2C)s1` [Example 2-31, N-(5-(((2R,3R)-3-((5-cyanopyridin-2-yl)oxy)-2-methylazetidin-1-yl)methyl)thiazol-2-yl)acetamide], the IC50 amounted to 440 nM.

For the compound `CC(=O)Nc1ncc(CN2CC(Oc3ccc(C#N)cn3)C2)s1` [Example 2-5, N-(5-((3-((5-cyanopyridin-2-yl)oxy)azetidin-1-yl)methyl)thiazol-2-yl)acetamide], the IC50 amounted to 340 nM.

Source of the values: US12421224B2 (BIOGEN MA INC., priority 2019, dated 2025).
